40 compounds from patent publication US4535075A, “Dithiolane derivative, process for producing the same and use thereof” (Nihon Nohyaku Co., Ltd., priority 1982, dated 1985) can be followed below.

This test concerns liver damage induced by carbon tetrachloride. Description: Protective (Controlling) effect on liver damage induced by carbon tetrachloride. The following applies: for p-GPT: CCl4 alone >2,100; for Liver Damage Index: average of 5 mice, CCl4 alone 5.0. The class given is in vivo, mice (dd strain). An excerpt:
Protective (Controlling) Effect on liver damage induced by carbon tetrachloride.
Carbon tetrachloride administration induces centrilobular necrosis of the liver associated with loss of diphosphopyridine nucleotide, hepatic glycogen, coenzyme A and increase in neutral fat. Release of several enzymes from the hepatocytes, and increases of enzyme activities in the plasma are recognized as the result of the damage of the liver.
A suitable means for evaluating the degree induced by carbon tetrachloride or the degree of protection afforded by drugs is to study the plasma glutamic-pyruvic transaminase (p-GPT) activity. […]
After 6 hours, carbon tetrachloride was administered orally 0.05 ml/kg.
Animals were killed 24 hours after carbon tetrachloride administration, and the liver was grossly observed.
The plasma was obtained by centrifugation. Activity of p-GPT were determined by the method of Reitman and Frankel and expressed in Karmen units.
Score for liver damage index was as follows:
1 Each figure indicated average of 5 mice.

Setting [1] is: 250 mg/kg p.o., CCl4 0.05 ml/kg after 6 h, 24 h.
The mark [2] stands for this setting: 250 mg/kg p.o., CCl4 0.05 ml/kg after 6 h, 24 h, 0 Normal, 2 Slightly recognized, 4 Clearly observable damage, 6 Heavy damage.

With `C=CCOC(=O)C(C(=O)OCC=C)=C1SC2OC(=O)OC2S1` (centres unmarked) [Compound 84], the p-GPT under setting [1] amounted to 13.9 Karmen units. Besides, the “Liver Damage Index” value under setting [2] was found to be 0.
The like results for `CCCCCCC(=O)C(C(=O)OCC)=C1SC2OC(=O)OC2S1` (centres unmarked) [Compound 105] were, in that order, 107.4 Karmen units and 1.6.
The like results for `CCCOC(=O)C(C(C)=O)=C1SC(OC(=O)OCC)C(OC(=O)OCC)S1` (centres unmarked) [Compound 67] were, in that order, 127.7 Karmen units and 0.8.
The matching figures for `CCOC(=O)C(C(=O)CC)=C1SC(O)C(O)S1` (centres unmarked) [Compound 49]: 23 Karmen units and 0.4.
In the case of `CCOC(=O)C(C(C)=O)=C1SC2OC(=O)OC2S1` (centres unmarked) [Compound 88], under setting [1], the p-GPT is 211.6 Karmen units. The “Liver Damage Index” value under setting [2] is on record as 1.4.
The matching figures for `CC(C)OC(=O)C(C(=O)OC(C)C)=C1SC2OC(=S)OC2S1` (centres unmarked) [Compound 109]: 139.3 Karmen units and 0.4.
In turn, `CCCCCOC(=O)C(C(C)=O)=C1SC2OC(=O)OC2S1` (centres unmarked) [Compound 95] came in with a p-GPT under setting [1] of 28.2 Karmen units. The “Liver Damage Index” value under setting [2] is listed as 0.8.
The matching figures for `CC(=O)OC1SC(=C(C(=O)OC(C)C)C(=O)OC(C)C)SC1OC(C)=O` (centres unmarked) [Compound 58]: 42.0 Karmen units and 1.0.
On to `CCCCCCOC(=O)C(C#N)=C1SC(O)C(O)S1` (centres unmarked) [Compound 33], for which, under setting [1], the p-GPT was determined as 93 Karmen units. In addition, under setting [2], the “Liver Damage Index” value is 0.8.
Consider `CCOC(=O)C(C(=O)c1ccccc1)=C1SC(O)C(O)S1` (centres unmarked) [Compound 56], for which, under “administered at 100 mg/kg p.o., scale 0 Normal to 6 Heavy damage”, the “Liver Damage Index” value turned out to be 4.0. The p-GPT (administered at 100 mg/kg p.o.) is over 1418 Karmen units.
Consider `CCCCOC(=O)C(C(C)=O)=C1SC2OC(=O)OC2S1` (centres unmarked) [Compound 91], for which the p-GPT under setting [1] is given as 27.9 Karmen units. Besides, the “Liver Damage Index” value under setting [2] stood at 0.8.
`CCCOC(=O)C(C(=O)OCCC)=C1SC(OC(=O)OCC)C(OC(=O)OCC)S1` (centres unmarked) [Compound 66] had a p-GPT under setting [1] of 53.8 Karmen units. The “Liver Damage Index” value under setting [2] stood at 0.2.
In the case of `CC(C)OC(=O)C(C(=O)OC(C)C)=C1SC(OC(=O)CCC(=O)O)C(OC(=O)CCC(=O)O)S1` (centres unmarked) [Compound 69], the “Liver Damage Index” value under setting [2] came to 2.2.
In the case of `CC(=O)C(C(=O)OCC(C)C)=C1SC2OC(=O)OC2S1` (centres unmarked) [Compound 92], the p-GPT under setting [1] was 29.4 Karmen units. Besides, the “Liver Damage Index” value under setting [2] is on record as 0.8.
Under setting [1], `CC(C)CCOC(=O)C(C(=O)OCCC(C)C)=C1SC2OC(=O)OC2S1` (centres unmarked) [Compound 81] came in with a p-GPT of 108.1 Karmen units. For the same compound, the “Liver Damage Index” value under setting [2] is given as 1.2.
The like results for `CCCOC(=O)C(C(=O)OCCC)=C1SC(OC(=O)C(C)(C)C)C(OC(=O)C(C)(C)C)S1` (centres unmarked) [Compound 62] were, in that order, 223.2 Karmen units and 1.2.
For the compound `CCC(C)OC(=O)C(C(=O)OC(C)CC)=C1SC2OC(=S)OC2S1` (centres unmarked) [Compound 111], the p-GPT under setting [1] stood at 18.6 Karmen units. Further, under setting [2], the “Liver Damage Index” value was found to be 0.8.
The like results for `CCCOC(=O)C(C(C)=O)=C1SC(OC(C)=O)C(OC(C)=O)S1` (centres unmarked) [Compound 61] were, in that order, 1260 Karmen units and 0.8.
Under setting [1], `CCCC(=O)C(C(=O)OCC)=C1SC2OC(=O)OC2S1` (centres unmarked) [Compound 101] registered a p-GPT of 20.0 Karmen units. Also, the “Liver Damage Index” value under setting [2] worked out at 0.2.
Under setting [1], `CCOC(=O)C(C(=O)OCC)=C1SC2OC(=S)OC2S1` (centres unmarked) [Compound 107] registered a p-GPT of 42.6 Karmen units. Moreover, the “Liver Damage Index” value under setting [2] was 0.6.
The matching figures for `C#CCOC(=O)C(C(=O)OCC#C)=C1SC2OC(=S)OC2S1` (centres unmarked) [Compound 113]: 13.3 Karmen units and 0.6.
The like results for `CCCCC(=O)C(C(=O)OCC)=C1SC2OC(=O)OC2S1` (centres unmarked) [Compound 103] were, in that order, 14.7 Karmen units and 0.
On to `CCCOC(=O)C(C(=O)OCCC)=C1SC(OC(=O)CCC(=O)O)C(OC(=O)CCC(=O)O)S1` (centres unmarked) [Compound 68], for which the “Liver Damage Index” value under setting [2] turned out to be 2.0.
For `CCOC(=O)C(C(=O)Cc1ccccc1)=C1SC(O)C(O)S1` (centres unmarked) [Compound 55], the p-GPT under setting [1] is 105 Karmen units. Moreover, the “Liver Damage Index” value under setting [2] was 1.8.
The like results for `CC(C)OC(=O)C(C#N)=C1SC(O)C(O)S1` (centres unmarked) [Compound 27, isopropyl 4,5-dihydroxy-1,3-dithiolan-2-ylidenecyanoacetate] were, in that order, 23 Karmen units and 0.2.
The like results for `O=C1OC2SC(=C(C(=O)OCc3ccccc3)C(=O)OCc3ccccc3)SC2O1` (centres unmarked) [Compound 83] were, in that order, 105.5 Karmen units and 1.2.
For `CC(C)CCOC(=O)C(C#N)=C1SC(O)C(O)S1` (centres unmarked) [Compound 31], the p-GPT under setting [1] was found to be 105 Karmen units. Besides, under setting [2], the “Liver Damage Index” value was found to be 0.6.
The like results for `CCCCCOC(=O)C(C#N)=C1SC(O)C(O)S1` (centres unmarked) [Compound 30] were, in that order, 116 Karmen units and 0.6.
The matching figures for `CC(C)COC(=O)C(C(=O)OCC(C)C)=C1SC2OC(=O)OC2S1` (centres unmarked) [Compound 77]: 21.2 Karmen units and 0.2.
Under setting [1], `CCOC(=O)C(C(=O)OCC)=C1SC2OC(=O)OC2S1` (centres unmarked) [Compound 73] had a p-GPT of 75.1 Karmen units. Further, under setting [2], the “Liver Damage Index” value was determined as 0.8.
For `CCCOC(=O)C(C(C)=O)=C1SC(OC(=O)C(C)(C)C)C(OC(=O)C(C)(C)C)S1` (centres unmarked) [Compound 63], the p-GPT under setting [1] came out at 402.6 Karmen units. For the same compound, the “Liver Damage Index” value under setting [2] was determined as 1.8.
Take `CCC(C)OC(=O)C(C(=O)OC(C)CC)=C1SC2OC(=O)OC2S1` (centres unmarked) [Compound 78]: under setting [1], the p-GPT came out at 96.0 Karmen units. Also, the “Liver Damage Index” value under setting [2] is given as 0.
The like results for `CCCOC(=O)C(C(C)=O)=C1SC2OC(=O)OC2S1` (centres unmarked) [Compound 90] were, in that order, 23.2 Karmen units and 0.3.
Under setting [1], `O=C1OC2SC(=C(C(=O)OC3CCCCC3)C(=O)OC3CCCCC3)SC2O1` (centres unmarked) [Compound 82] registered a p-GPT of 159.7 Karmen units. Also, the “Liver Damage Index” value under setting [2] is given as 0.4.
The matching figures for `CCOC(=O)C(C(=O)Cc1ccccc1)=C1SC2OC(=O)OC2S1` (centres unmarked) [Compound 106]: 602.2 Karmen units and 1.0.
The like results for `COC(=O)C(C#N)=C1SC(O)C(O)S1` (centres unmarked) [Compound 24] were, in that order, 152 Karmen units and 1.0.
The like results for `CCOC(=O)C(C(=O)C(C)C)=C1SC2OC(=O)OC2S1` (centres unmarked) [Compound 102] were, in that order, 48.5 Karmen units and 1.2.
On to `CCCOC(=O)C(C(=O)OCCC)=C1SC(OC(=O)N(C)C)C(OC(=O)N(C)C)S1` (centres unmarked) [Compound 64, di-n-propyl 4,5-bis (N,N-dimethylcarbamoyloxy)-1,3-dithiolane-2-ylidenemalonate], for which, under setting [2], the “Liver Damage Index” value came out at 3.4.
Consider `CC(C)COC(=O)C(C(=O)OC(C)C)=C1SC2OC(=O)OC2S1` (centres unmarked) [Compound 86], for which the p-GPT under setting [1] was over 436.4 Karmen units. Besides, the “Liver Damage Index” value under setting [2] came out at 0.6.
For the compound `CC(C)COC(=O)C(C(=O)OCC(C)C)=C1SC2OC(=S)OC2S1` (centres unmarked) [Compound 110], the p-GPT under setting [1] was 554.7 Karmen units. Moreover, under setting [2], the “Liver Damage Index” value turned out to be 1.2.
